Source: PubChem BioAssay (NCI)
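Results reflect a 48-hour exposure of cells in 96-well plates to compound at five concentrations. TGI denotes the concentration required for complete inhibition of growth.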 Where a SMILES comes first, the peptide text is derived from it. The star is where a group is joined. Boc = CC(C)(C)OC(=O)*; OBn = c1ccc(CO*)cc1

Key:
Test in all cases: inhibition of tumour cell growth, NCI panel, 48 h
[1] = system: A549 NSCLC
[2] = system: KM12 colon
[3] = system: OVCAR-3 ovarian
[4] = system: OVCAR-4 ovarian
[5] = system: SNB-75 CNS
[6] = system: HOP-62 NSCLC
[7] = system: NCI-H226 lung
[8] = system: MALME-3M melanoma
[9] = system: BT-549 breast
[10] = system: HOP-92 NSCLC

SMILES | TGI [1] [µM] | TGI [2] [µM] | TGI [3] [µM] | TGI [4] [µM] | TGI [5] [µM] | TGI [6] [µM] | TGI [7] [µM] | TGI [8] [µM] | TGI [9] [µM] | TGI [10] [µM]
C[n+]1c2ccccc2c(C(=O)Nc2ccc(S(=O)(=O)N=C(N)N)cc2)c2ccccc21 | > 100 | > 100 | > 100 | > 100 | > 100 | > 100 | > 100 | > 100 |  | 
Nc1cc(N2CCCC2)nc(=O)n1Cc1ccccc1 | > 100 | > 100 |  | > 100 | > 100 | > 100 | > 100 | > 100 | > 100 | > 100
COc1ccc(OC)c2c1C1CCC(=O)N1CN2C(C)=O (stereo not given) | > 100 | > 100 | > 100 | > 100 | > 100 | > 100 | > 100 | > 100 |  | > 100
Cc1c(-c2ccccc2)c(C#N)c2nnc(C(N)=O)c(N)n12 | > 100 | > 100 | > 100 | > 100 |  | > 100 |  | > 100 | > 100 | 
OC12CC/C(=N/OCc3ccccc3)CC1c1ccccc12 (stereo not given) | > 100 | > 100 | > 100 | > 100 | > 100 | > 100 | > 100 | > 100 |  | 
CC(C)(C)OC(=O)NC(Cc1ccccc1)C(=O)NC(Cc1ccccc1)C(=O)NCC(=O)OCc1ccccc1 (stereo not drawn) (Boc-Phe-Phe-Gly-OBn; configuration not given here) |  |  | 46.1 | > 100 | 59 | 91.7 |  | > 100 |  | > 100
CC(=O)OC1[C@H]2c3cc4c(cc3CN3CCC(=C[C@@H]1O)C23)OCO4 (stereo not given in full) | > 100 | > 100 | > 100 |  | > 100 | > 100 | > 100 | > 100 |  | 
S=C(S)NCC1CCC(CNC(=S)S)CC1 (stereo not given) | > 100 | 42.5 | 30.3 | > 100 | > 100 | 42.9 |  | 63.1 | > 100 | 
CC(=O)O[C@H]1C(=O)[C@@]2(C)[C@H]([C@H](OC(=O)c3ccccc3)[C@]3(O)C[C@H](OC(=O)[C@H](O)[C@@H](NC(=O)CC(C)(C)C)c4ccccc4)C(C)=C1C3(C)C)C1(OC(C)=O)CO[C@@H]1C[C@@H]2O (stereo not given in full) | > 10 |  |  | > 10 | 0.0154 |  | > 5.23 |  | > 10 | 
Cn1nc(S(N)(=O)=O)s/c1=N/C(N)=S | > 100 | > 100 | > 100 | > 100 |  | > 100 | > 100 | > 100 | > 100 | > 100
COc1ccc(/C=C2\N=C(c3ccccc3)N(C3Nc4cc5c(cc4S3)NC(N3C(=O)/C(=C/c4ccc(OC)cc4)N=C3c3ccccc3)S5)C2=O)cc1 (stereo not given) | > 100 | > 100 | > 100 | > 100 | 94.2 | > 100 | > 100 |  | 61.9 | > 100
c1ccc2c(Cc3nnc4sc(SSc5nn6c(Cc7c[nH]c8ccccc78)nnc6s5)nn34)c[nH]c2c1 | 88.4 | 70.3 | 29.2 | > 100 | > 100 | 30.2 |  | 78.7 |  | > 100
Cn1cnc2c(sc3nc4ccccc4n32)c1=N | > 100 |  | > 100 | > 100 | 73.8 | > 100 | > 100 | > 100 | > 100 | > 100
CN(C)CCCOCCn1c2c(c3ccccc31)CCCC2 | 31.8 | 43.1 | 53.1 | 44.3 | 57.9 | 28.3 | 63.5 | 32.5 |  | 46
N#CC(NNC(=O)c1ccccc1O)c1cccc(O)c1 (stereo not given) | > 100 | > 100 | > 100 | > 100 | > 100 | > 100 | 88.5 | > 100 |  | > 100
CCOc1cc(C2CC(c3ccc(NS(=O)(=O)c4cc([N+](=O)[O-])ccc4C)cc3)=NN2)ccc1O (stereo not given) | > 100 |  | 37.3 | 71.4 | 84 |  | > 100 | 75.3 | 51.6 | > 100
CC(=O)c1cc2ccccc2n(O)c1=N | > 100 | > 100 | > 100 | > 100 |  | > 100 | > 100 | > 100 |  | > 100
O=S1(=O)c2ccccc2NC(=S)CC1c1ccccc1 (stereo not given) | > 100 | > 100 | > 100 | > 100 | > 100 | > 100 | > 100 | > 100 | > 100 | 
CC(=O)Oc1ccc(C2COc3cc(OC(C)=O)c(OC(C)=O)cc3C2)cc1 (stereo not given) | 57.3 | 69.5 | 25.2 | 29.1 | 32.6 | 48 | 54.7 | 31 |  | 24.9
O=c1[nH]c(N/N=C\C(O)C(O)C(O)CO)nc2ccccc12 (stereo not given) | > 100 | > 100 | > 100 |  | > 100 | > 100 | > 100 |  | > 100 | > 100
CCCCOCn1c(=O)[nH]c(=O)c2cc(Br)ccc21 | > 100 | > 100 | > 100 | > 100 | > 100 |  | 46.9 |  |  | > 100
COC(=O)C1(Cc2ccccc2)Cc2ccccc2C1 | > 100 | > 100 |  | > 100 | 96.2 | > 100 | 78.3 | 35.4 |  | 46.3
Cc1ccc(C(=O)/C(C#N)=C/Nc2c(C)n(C)n(-c3ccccc3)c2=O)cc1 | > 100 | > 100 | > 100 | > 100 |  | > 100 | > 100 | > 100 | > 100 | > 100
CSc1c(C#N)c2n(c3ccccc13)c1ccccc1[n+]2C | 81.8 | > 100 | > 100 | > 100 | > 100 | 52.7 |  | 34.6 | 74.3 | > 100
